Measured values: article PMC8964833, “Identification of cell wall synthesis inhibitors active against Mycobacterium tuberculosis by competitive activity-based protein profiling” (Cell Chemical Biology, 2022)
Where two headings read alike, the source gives them in different places.

Assays:
Pks13 [1] = molecular target: T1, Pks13 (Mycobacterium tuberculosis, UniProt I6X8D2); test: cell-based; conditions: Mycobacterium tuberculosis H37Rv, read-out: % inhibition
Pks13 [2] = molecular target: T1, Pks13; test: cell-based; conditions: Mycobacterium tuberculosis H37Rv, read-out: % inhibition; remark: listed apart in the source

T1 sequence (I6X8D2 whole entry, looked up): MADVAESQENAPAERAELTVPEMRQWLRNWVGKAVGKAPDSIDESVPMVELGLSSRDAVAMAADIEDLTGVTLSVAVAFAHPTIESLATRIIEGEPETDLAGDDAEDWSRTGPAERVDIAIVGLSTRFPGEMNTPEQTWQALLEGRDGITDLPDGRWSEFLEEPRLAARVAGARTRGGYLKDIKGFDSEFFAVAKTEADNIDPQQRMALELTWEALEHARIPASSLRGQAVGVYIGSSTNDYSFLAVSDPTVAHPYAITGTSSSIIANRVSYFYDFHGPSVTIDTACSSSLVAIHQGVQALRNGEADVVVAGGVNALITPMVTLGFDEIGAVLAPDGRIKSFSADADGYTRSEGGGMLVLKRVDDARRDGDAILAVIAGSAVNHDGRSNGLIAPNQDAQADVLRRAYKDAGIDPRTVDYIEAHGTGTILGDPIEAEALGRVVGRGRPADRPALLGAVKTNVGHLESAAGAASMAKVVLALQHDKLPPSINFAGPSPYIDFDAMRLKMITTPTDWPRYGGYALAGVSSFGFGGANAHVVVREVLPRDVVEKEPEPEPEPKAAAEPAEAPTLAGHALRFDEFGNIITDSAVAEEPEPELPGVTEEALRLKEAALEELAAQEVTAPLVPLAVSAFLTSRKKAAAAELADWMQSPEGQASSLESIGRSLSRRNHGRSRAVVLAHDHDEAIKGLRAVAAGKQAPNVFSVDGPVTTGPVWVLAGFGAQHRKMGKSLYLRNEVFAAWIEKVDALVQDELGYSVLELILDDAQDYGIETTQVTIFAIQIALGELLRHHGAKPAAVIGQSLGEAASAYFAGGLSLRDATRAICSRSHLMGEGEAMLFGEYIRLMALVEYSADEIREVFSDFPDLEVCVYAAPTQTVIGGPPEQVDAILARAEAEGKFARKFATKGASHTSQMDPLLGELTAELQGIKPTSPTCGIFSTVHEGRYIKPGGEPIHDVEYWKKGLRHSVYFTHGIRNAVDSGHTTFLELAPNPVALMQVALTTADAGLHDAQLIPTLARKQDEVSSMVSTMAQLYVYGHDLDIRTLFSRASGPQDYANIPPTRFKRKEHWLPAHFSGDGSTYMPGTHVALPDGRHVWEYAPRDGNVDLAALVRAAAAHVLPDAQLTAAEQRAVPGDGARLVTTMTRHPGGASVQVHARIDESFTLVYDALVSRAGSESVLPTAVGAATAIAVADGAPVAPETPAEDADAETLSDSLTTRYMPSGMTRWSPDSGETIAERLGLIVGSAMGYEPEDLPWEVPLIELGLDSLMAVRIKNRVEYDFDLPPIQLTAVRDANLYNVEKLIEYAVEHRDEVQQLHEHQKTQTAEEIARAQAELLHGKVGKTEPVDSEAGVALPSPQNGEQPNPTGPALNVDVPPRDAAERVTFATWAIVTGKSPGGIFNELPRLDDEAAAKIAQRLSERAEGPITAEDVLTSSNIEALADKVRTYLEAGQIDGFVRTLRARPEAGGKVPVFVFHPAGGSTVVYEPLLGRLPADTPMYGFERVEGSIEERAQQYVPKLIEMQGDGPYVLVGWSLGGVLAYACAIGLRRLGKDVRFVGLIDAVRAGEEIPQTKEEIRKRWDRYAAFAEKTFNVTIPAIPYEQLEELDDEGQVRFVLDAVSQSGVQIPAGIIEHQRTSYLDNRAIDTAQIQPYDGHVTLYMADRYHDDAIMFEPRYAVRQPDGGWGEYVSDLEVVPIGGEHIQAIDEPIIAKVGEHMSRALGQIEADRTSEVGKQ

Row | Structure (SMILES) | inhibition at 13 µM (Pks13 [1]) [%] | inhibition at 13 µM (Pks13 [2]) [%]
1 | CC(C)(O)c1cnn(C(=O)N2CCC(C(C)(C)C)CC2)n1 [AA692-(2,4), AA692] | 0 | 18
2 | CC(C)(O)c1cnn(C(=O)N2CCCCC2)n1 [AA702] | – | 0
